Source: patent US10377778B2, “Lead and thorium compounds” (Sciencons AS, priority 2017, dated 2019)

Assays:
[1] = system: C4-2 PSMA-positive xenografts; test: Biodistribution of radiolabelled ligands (^224Ra/^212Pb solutions, ^177Lu) in nude mice with C4-2 xenografts
Procedure: Each group usually consisted of three mice. […] Approximately 16 kBq of ^224Ra/^212Pb was injected in each animal, i.e., approximately 0.2 nmol of ligand per mouse. Animals were given anaesthesia and sacrificed by cervical dislocation followed by dissection and harvesting of tissue-, blood- and urine samples. The samples were weighed and counted on a gamma counter.
Three mice in each group. […] The molar concentration was the same for both products, i.e., 12.5 nmol per MBq. Approximately 16 kBq of ^224Ra/^212Pb was injected in each animal, i.e., approximately 0.2 nmol of ligand per mouse. Animals were given anaesthesia and sacrificed by cervical dislocation followed by dissection and harvesting of tissue-, blood- and urine samples. The samples were weighed and counted on a gamma counter.
Methods: Tumor and kidney uptake of ^212Pb-labeled p-SCN-Bn-TCMC-PSMA ligand 1 and ^177Lu-labeled PSMA-617 was compared at 1 hours and 4 hours after administration of the products by intravenous injection into nude mice with C4-2 xenografts as described in Example 9.

[2] = system: C4-2 PSMA positive human prostate cells xenografts; test: Comparative therapy experiment in nude mice with C4-2 xenografts; format: in vivo; conditions: 52 MBq ^177Lu-PSMA-617 or 320 kBq ^212Pb-ligand 1
Procedure: Male nude mice were inoculated in the flanks with C4-2 PSMA positive human prostate cells and 2 weeks later when tumors were 5-7 mm in diameters. Groups of 8 animals each received saline, 52 MBq of ^177Lu-PSMA-617 or 320 kBq of ^212Pb-p-SCN-Bn-TCMC-PSMA ligand 1. Animals were sacrificed when tumor size reached 20 mm due to animal welfare requirements. […] For ^212Pb the effective half-life was assumed to be 10.6 h, 10% of injected dose per gram decays in tumor and 100% of radiation in a tumor is absorbed in the tumor, 100% retention of ^212Pb and daughters in the tumors and 8 MeV radiation energy per decay. The tumor dosimetry for the injected activities gave on average 35.9 Gy to tumors for ^177Lu-PSMA-617 and 2.06 Gy to tumors for ^212Pb-p-SCN-Bn-TCMC-PSMA ligand 1 groups respectively.

[3] = system: PC3 PIP model; conditions: mouse xenografts, model used by other researchers; cited from earlier work
[4] = Stability testing of ^212Pb-labeled ligands in vitro (TLC radiochemical purity in PBS and FBS); format: physicochemical; conditions: 37° C.
Procedure: Thin layer chromatography (TLC) was performed using chromatography strips (model #150-772, Biodex Medical Systems Inc, Shirley, N.Y., USA). A formulation buffer (FB) consisting of 7.5% human serum albumin and 5 mM EDTA in DPBS and adjusted to approximately pH 7 with NaOH was mixed with the antibody conjugates in ratio 2:1 for at least 5 minutes before application to the strips to determine free radionuclide. A small beaker with about 0.5 ml of 0.9% NaCl was used to place strips with a sample spot in. To the strip was typically added 1-4 μl of sample at approximately 10% above the bottom of the strip. After the solvent front had moved to about 20% from the top of the strip, the strip was cut in half and each half was placed in a 5 ml test tube for counting. In this system radiolabeled ligand stays at the bottom half while radionuclide complexed with EDTA migrates to the upper half. It was verified that free cations of both ^212Pb and ^177Lu would complex with EDTA and moved to the top.
TLC analyses were performed at 1 h, 4 h, 24 h and 48 h of incubation. […]

[5] = system: C4-2 cells; test: Prostate cancer cell binding of ^212Pb-labeled ligands; set-up: species or system human; conditions: labeled with ^212Pb
Procedure: The cell binding fractions measured by adding about 1 ng of radioligand to 0.2 ml of C4-2 cells (5×10^7 cells per ml) in a 5 ml test tube and incubate for 1 h before measuring applied activity, wash cells 3 times with 0.5 ml 0.5% bovine serum albumin in DPBS and thereafter recount the washed cell pellet. […] Nonspecific binding was measured by blocking the cells with excess 10 μg/ml of unlabelled ligand before adding radioligand.

## O=C([O-])CN1CCN(CC(=O)[O-])CCN(CC(=O)NCC2CCC(C(=O)N[C@@H](Cc3ccc4ccccc4c3)C(=O)NCCCC[C@H](NC(=O)N[C@@H](CCC(=O)O)C(=O)O)C(=O)O)CC2)CCN(CC(=O)[O-])CC1.[177Lu+3] (some centres unmarked) [^177Lu-PSMA-617, reference compound]
[1]; 1-hour point after administration
  Average tumor-to-kidney ratio: 0.17
[1]; 4-hour timepoint
  Tumor-to-kidney ratio: 0.8
[1]; 4 hours after i.v. injection
  Kidney uptake (average): 17.4 % ID/g
  Tumor uptake (average): 13.6 % ID/g
[1]; mouse xenografts, tumor model with intermediary level of uptake
  Typical PSMA-ligand uptake of the xenograft model used: 10-15 % ID/g
[2]; groups of 8, saline group 0%
  Survival at day 30 after treatment: 12.5%
[2]; saline group 15 days
  Median survival: 20 days
[3]
  Typical uptake in PC3 PIP model: 30-40 % ID/g

## O=C(O)CCC(NC(=O)NC(CCCCNC(=O)C(Cc1ccc2ccccc2c1)NC(=O)C1CCC(CNC(=O)CN2CCN(CC(=O)O)CCN(CC(=O)O)CCN(CC(=O)O)CC2)CC1)C(=O)O)C(=O)O.[212Pb+2] (centres unmarked) [^212Pb-PSMA-617, reference compound]
[4]; FBS, 1 h since start of incubation, in ^224Ra/^212Pb solution
  Radiochemical purity: 92.13%
[4]; FBS, 4 h
  Radiochemical purity: 94.37%
[4]; FBS, 24 h
  Radiochemical purity: 94.54%
[4]; FBS, 48 h
  Radiochemical purity: 95.65%
[4]; PBS, 1 h since start of incubation, in ^224Ra/^212Pb solution
  Radiochemical purity: 91.62%
[4]; PBS, 4 h
  Radiochemical purity: 94.33%
[4]; PBS, 24 h
  Radiochemical purity: 93.26%
[4]; PBS, 48 h
  Radiochemical purity: 93.17%

## NC(=O)CN1CCN(CC(N)=O)CCN(CC(N)=O)C(Cc2ccc(NC(=S)NC[C@H]3CC[C@H](C(=O)N[C@@H](Cc4ccc5ccccc5c4)C(=O)NCCCC[C@H](NC(=O)N[C@@H](CCC(=O)O)C(=O)O)C(=O)O)CC3)cc2)CN(CC(N)=O)CC1 (stereo partly drawn) [p-SCN-Bn-TCMC-PSMA ligand 1, (((1S)-1-carboxy-5-((2S)-3-(naphthalen-2-yl)-2-((1r,4S)-4-((3-(4-((1,4,7,10-tetrakis(2-amino-2-oxoethyl)-1,4,7,10-tetraazacyclododecan-2-yl)methyl)phenyl)thioureido)methyl)cyclohexane-1-carboxamido)propanamido)pentyl)carbamoyl)-L-glutamic acid; trifloroacetic acid (1:4)]
[5]
  Difference in cell-binding versus radiolabelled PSMA-617: No significant difference
